US9944654B2, “Nargenicin compounds and uses thereof as antibacterial agents” (priority 2014, dated 2018)
Converted amounts (≈) assume the structure as drawn. “And” between values parts separate entries of the source, which are not always exact repeats. Equal values may be shown once. Read-outs that look alike come from different tables or passages of the source.

Key:
[1] = tested on: Staphylococcus aureus MB6266 (MRSA COL); test: Nargenicin antibacterial assay (MIC), S. aureus; assay type: cell-based; settings: Staphylococcus aureus, MRSA, read-out: S. aureus COL (MIC), MHII broth + 50% human serum; * = some reduction of growth versus control at […]
[2] = biological target: T1, S. aureus DnaE (DNA polymerase III α-subunit homolog from Staphylococcus aureus) (Staphylococcus aureus, UniProt Q5HF71); test: biochemical; assay type: biochemical
T1 construct: SaDnaE (S. aureus DnaE residues 1-1065); 6xHis (N); made in house; host or cells: E. coli BL21-AI
T1 sequence (Q5HF71 1-1065): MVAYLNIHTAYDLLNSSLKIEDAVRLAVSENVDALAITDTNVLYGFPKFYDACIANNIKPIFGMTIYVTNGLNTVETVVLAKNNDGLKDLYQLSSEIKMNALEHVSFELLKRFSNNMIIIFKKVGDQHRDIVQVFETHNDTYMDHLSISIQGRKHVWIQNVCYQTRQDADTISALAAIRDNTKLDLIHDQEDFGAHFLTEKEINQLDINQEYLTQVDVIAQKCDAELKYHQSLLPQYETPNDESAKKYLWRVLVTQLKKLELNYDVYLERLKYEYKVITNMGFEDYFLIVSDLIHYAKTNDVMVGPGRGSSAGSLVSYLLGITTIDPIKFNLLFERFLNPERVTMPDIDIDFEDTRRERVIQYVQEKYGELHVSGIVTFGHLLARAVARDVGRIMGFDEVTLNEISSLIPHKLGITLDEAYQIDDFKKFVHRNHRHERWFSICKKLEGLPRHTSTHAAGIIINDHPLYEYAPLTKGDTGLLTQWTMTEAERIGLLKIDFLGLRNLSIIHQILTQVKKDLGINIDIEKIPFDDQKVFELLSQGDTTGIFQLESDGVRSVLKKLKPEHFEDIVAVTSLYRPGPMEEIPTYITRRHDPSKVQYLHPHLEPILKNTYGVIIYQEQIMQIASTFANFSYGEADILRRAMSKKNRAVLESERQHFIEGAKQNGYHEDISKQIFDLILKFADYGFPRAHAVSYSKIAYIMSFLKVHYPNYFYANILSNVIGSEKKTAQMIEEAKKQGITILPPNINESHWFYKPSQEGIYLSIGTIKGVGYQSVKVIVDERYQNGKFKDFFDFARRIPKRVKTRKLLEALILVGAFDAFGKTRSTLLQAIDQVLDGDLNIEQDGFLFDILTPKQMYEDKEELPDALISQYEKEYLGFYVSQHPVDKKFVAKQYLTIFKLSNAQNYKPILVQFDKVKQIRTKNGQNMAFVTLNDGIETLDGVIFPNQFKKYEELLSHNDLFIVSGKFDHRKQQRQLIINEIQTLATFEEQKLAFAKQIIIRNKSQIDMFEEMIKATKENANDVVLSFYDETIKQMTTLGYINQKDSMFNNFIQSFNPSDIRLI
Procedure: (§1) Plasmids encoding EcDnaE (E. coli DnaE residues 1-1160) and SaDnaE (S. aureus DnaE residues 1-1065) with 6×His N-terminal tags, were overexpressed in BL21(DE3) and BL21-AI cells (Invitrogen), respectively. Cells were grown in LB media to an OD ˜0.45 pelleted and then resuspended in Minimal Media, as described in Pryor et al. (1997, Protein Expr Purif. 10:309-19), and inducer (0.4 mM IPTG or 0.2% arabinose) for 21 hours at 18° C. at 220 rpm. Cells were then harvested, frozen for 20 minutes at −80° C. and thawed. Pellets were resuspended in 1× Talon buffer (50 mM Sodium Phosphate, 300 mM Sodium Chloride, pH 7.4) +10% glycerol +Roche PI's (-EDTA). Cells were lysed with two passes through a French press, then centrifuged for 45 minutes at 40,000 rpm (70Ti, Beckman). Supernatant was bound to 5 mL TALON resin (CLONTECH) for 1 hour at room temperature on Nutator. TALON resin was washed with 10 mM imidizole, and DnaE was eluted with 250 mM imidizole. Eluate was concentrated and run on a size exclusion column (SEC200, GE Healthcare) in the following buffer; 25 mM HEPES, 30 mM NaCl,1 mM CaCl2, 5% glycerol, pH 7.9. Pool SEC fractions based on SDS-PAGE run, aliquot, freeze, and store at -80° C.
(§2) DnaE was diluted in 50 mM potassium phosphate pH 7.5, 5 mM BME, 10% glycerol and 200 mM NaCl prior to use.
(§3) The purpose of the DnaE single enzyme assay is to determine the ability of compounds to inhibit the DNA polymerase III α-subunit homolog from Staphylococcus aureus or the α-subunit from Escherichia coli without the other components of the replication machinery. The DnaE single enzyme assay was a modified version of the method, Standard Pol III Assay Using Activated DNA and Four dNTPs, described by Butler et al., 2008, Methods in Molecular Medicine: New Antibiotic Targets 142:25-36. Briefly, in 96-well plates, enzyme was added to a mixture containing 30 mM Tris-HCl pH 7.5, 20% glycerol, 4 mM DTT, 10 mM Mg acetate, 0.025 mM dATP, 0.025 mM dGTP, 0.025 mM dc:TP, 0.011 mM ^3H-dTTP 1 mCi/ml (Perkin-Elmer), and 0.298 mg/mL Dnase I (Sigma) treated “activated” Calf Thymus DNA (Worthington Biochemical). The assay was set up so that 5 μl of compound was distributed to the plates, 90 μl of reaction mix was added to the compound, and 5 μl of enzyme was added to start the reaction. Assays were initiated by the addition of 0.8 μg/ml E. coli or 0.05 μg/ml S. aureus DnaE, incubated for 30 min at 30° C., and terminated by the addition of a 20% trichloroacetic acid and 0.2% sodium pyrophosphate solution. Precipitated labeled DNA was collected on Glass-fiber Filtermat A using Micro96 Harvester, and the filters were washed, dried, and counted in a Microbeta Trilux (Perkin Elmer). Serial dilutions of compounds (in DMSO) were added to the plates before enzyme addition.

[3] = tested on: Pseudomonas aeruginosa MB5890 (CB1101, efflux-deleted); test: microbe, parasite or virus in culture; assay type: cell-based; settings: * = some reduction of growth versus control at […]; for MIC: Pseudomonas aeruginosa, read-out: P. aeruginosa MB5890 efflux-del (MIC), MHII broth
[4] = tested on: Escherichia coli MB5747 (LS 883, tolC); test: microbe, parasite or virus in culture; assay type: cell-based; settings: * = some reduction of growth versus control at […]; for MIC: Escherichia coli, read-out: E. coli LS883 tolC (MIC), MHII broth
[5] = biological target: T2, E. coli DnaE (DNA polymerase III α-subunit from Escherichia coli) (Escherichia coli, UniProt P10443); test: In vitro DnaE single enzyme assay (E. coli); assay type: biochemical
T2 construct: EcDnaE (E. coli DnaE residues 1-1160); 6xHis (N); made in house; host or cells: E. coli BL21(DE3)
Procedure: as §1, §2, §3

[6] = tested on: Streptococcus pneumoniae MB6357 (CL 2883); test: Nargenicin antibacterial assay (MIC), S. pneumoniae; assay type: cell-based; settings: Streptococcus pneumoniae
[7] = read-out: S. pneumoniae MB2883 (MIC), Isosensitest broth, * = some reduction of growth versus control at […]
[8] = read-out: S. aureus DnaE IC50 (converted)
[9] = read-out: S. pneumoniae MB2883 (MIC)

T2 sequence (P10443 whole entry, the tested form may be a part): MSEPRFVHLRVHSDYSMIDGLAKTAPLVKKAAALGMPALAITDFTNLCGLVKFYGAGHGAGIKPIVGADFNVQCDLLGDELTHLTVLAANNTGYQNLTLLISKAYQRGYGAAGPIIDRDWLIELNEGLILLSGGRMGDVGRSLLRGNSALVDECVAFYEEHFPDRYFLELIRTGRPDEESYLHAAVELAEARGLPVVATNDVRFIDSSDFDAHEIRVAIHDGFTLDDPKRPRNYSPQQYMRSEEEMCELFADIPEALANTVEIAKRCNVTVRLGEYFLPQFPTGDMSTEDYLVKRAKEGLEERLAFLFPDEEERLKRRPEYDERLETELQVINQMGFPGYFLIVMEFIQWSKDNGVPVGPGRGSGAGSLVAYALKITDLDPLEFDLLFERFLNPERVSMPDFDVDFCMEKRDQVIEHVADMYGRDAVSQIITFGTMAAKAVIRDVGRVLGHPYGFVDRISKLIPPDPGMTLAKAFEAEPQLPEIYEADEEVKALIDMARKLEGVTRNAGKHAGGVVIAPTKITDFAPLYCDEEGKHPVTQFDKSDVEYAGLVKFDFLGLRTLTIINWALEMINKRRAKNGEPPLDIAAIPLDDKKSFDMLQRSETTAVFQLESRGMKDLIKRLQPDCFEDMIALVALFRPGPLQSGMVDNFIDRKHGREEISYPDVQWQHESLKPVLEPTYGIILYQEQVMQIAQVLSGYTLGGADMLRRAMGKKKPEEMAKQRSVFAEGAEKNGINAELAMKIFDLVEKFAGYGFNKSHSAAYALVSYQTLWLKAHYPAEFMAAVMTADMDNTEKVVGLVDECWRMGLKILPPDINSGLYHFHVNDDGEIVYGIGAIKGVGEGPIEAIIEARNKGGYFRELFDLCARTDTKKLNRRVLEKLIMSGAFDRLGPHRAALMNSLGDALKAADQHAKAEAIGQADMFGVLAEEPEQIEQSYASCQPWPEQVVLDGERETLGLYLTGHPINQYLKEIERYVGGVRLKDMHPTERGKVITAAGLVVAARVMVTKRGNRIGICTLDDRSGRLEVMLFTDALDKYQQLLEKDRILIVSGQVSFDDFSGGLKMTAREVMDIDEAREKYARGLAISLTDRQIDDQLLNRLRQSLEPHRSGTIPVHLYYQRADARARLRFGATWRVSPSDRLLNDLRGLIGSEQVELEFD

| Compound | MIC [1] [µg/mL] | IC50 ([2]; S. aureus DnaE IC50) [µM] | MIC [3] [µg/mL] | MIC [4] [µg/mL] | IC50 ([5]; read-out: E. coli DnaE IC50 (converted)) [µM] | MIC [6, 7] [µg/mL] | P. aeruginosa MB5890 efflux-del (MIC) ([3]; MHII broth) [µg/mL] | E. coli LS883 tolC (MIC) ([4]; MHII broth) [µg/mL] | IC50 ([5]; E. coli DnaE IC50) | IC50 [2, 8] [µM] | MIC [6, 9] [µg/mL] |
| --- | --- | --- | --- | --- | --- | --- | --- | --- | --- | --- | --- |
| CO[C@H]1CC2C=C[C@H]3[C@H]4O[C@]2(/C(C)=C/[C@@H](C)[C@@H]([C@@H](C)OC(=O)OC2CCC(O)CC2)OC1=O)[C@@H]3[C@H](O)[C@@H](C)[C@H]4OC(=O)c1ccc[nH]1 (single isomer, unassigned) [Example 34] | 32 | 0.0106 | > 128 | 32 (≈ 48.7 µM) | 106 | 64 (≈ 97.3 µM) |  |  |  |  |  |
| COC1CC2C=CC3C4OC2(C(C)=CC(C)C(C(C)OC(=O)OCCN(CCO)C(CO)(CO)CO)OC1=O)C3C(O)C(C)C4OC(=O)c1ccc[nH]1 (centres unmarked) [Example 31] | 2 | < 0.00799 | 32 (≈ 42.6 µM) | 2 (≈ 2.66 µM) |  | > 128 |  |  |  |  |  |
| CO[C@H]1CC2C=C[C@H]3[C@H]4O[C@]2(/C(C)=C/[C@@H](C)[C@@H](C(C)O)OC1=O)[C@@H]3[C@H](O)[C@@H](C)[C@H]4OC(=O)c1cc(-c2cccn2C(=O)OC(C)(C)C)c[nH]1 (some centres unmarked) [Example 45] | > 128 | 2.2 | > 128 | > 128 |  | 4 (≈ 5.88 µM) |  |  |  |  |  |
| CO[C@H]1C[C@H]2C=C[C@H]3[C@H]4O[C@]2(/C(C)=C/[C@@H](C)[C@@H]([C@@H](C)O)OC1=O)[C@@H]3[C@H](O)[C@@H](C)[C@H]4O [Example 152] | > 128 |  | 16 (≈ 37.9 µM) | 16 (≈ 37.9 µM) |  | > 128 |  |  |  |  |  |
| CC[C@H]1OC(=O)[C@@H](OC)C[C@H]2C=C[C@H]3[C@H]4O[C@]2(/C(C)=C/[C@H]1C)[C@@H]3[C@H](O)[C@@H](C)[C@H]4OC(=O)c1ccc[nH]1 [Example 159] | 2 | < 0.006 | 32 (≈ 64.1 µM) | 4 (≈ 8.01 µM) |  |  | 16 | 2 | 36 µM and 22 µM and 30 µM and 20 µM |  |  |
| CO[C@H]1CC2C=C[C@H]3[C@H]4O[C@]2(/C(C)=C/[C@@H](C)[C@@H](C(C)O)OC1=O)[C@@H]3[C@H](O)[C@@H](C)[C@H]4OC(=O)c1cc(-c2ccsc2)c[nH]1 (some centres unmarked) [Example 165] | > 128 | 4.85 | > 128 | 16 (≈ 26.8 µM) |  | 8 (≈ 13.4 µM) |  |  |  |  |  |
| CO[C@H]1C[C@H]2C=C[C@@H]3[C@H]4C(=O)C(C)C(C[N+](=O)[O-])[C@@H]3O[C@@]24/C(C)=C/[C@@H](C)[C@@H]([C@@H](C)OCSC)OC1=O (some centres unmarked) [Example 175] | > 128 | > 191 | > 128 | > 128 |  | > 128 |  |  |  |  |  |
| CO[C@H]1C[C@H]2C=C[C@H]3[C@H]4O[C@]2(/C(C)=C/[C@@H](C)[C@@H]([C@@H](C)O)OC1=O)[C@@H]3[C@H](O)[C@@H](C)[C@H]4OC(=O)c1ccsc1 [Example 183] |  |  | 16 (≈ 30 µM) | 1 (≈ 1.88 µM) |  |  |  |  | 9.76 µM | < 0.0113 | 64 (≈ 120 µM) |
| CO[C@H]1C[C@H]2C=C[C@H]3[C@H]4O[C@]2(/C(C)=C/[C@@H](C)[C@@H]([C@@H](C)O)OC1=O)[C@@H]3[C@H](O)[C@@H](C)[C@H]4OCc1ccsc1 [Example 184] |  |  | 64 (≈ 123 µM) | 8 (≈ 15.4 µM) |  |  |  |  | 75.2 µM | 0.0771 | 64 (≈ 123 µM) |
| CC[C@H]1OC(=O)[C@@H](OC)C[C@H]2C=C[C@H]3[C@H]4O[C@]2(/C(C)=C/[C@H]1C)[C@@H]3[C@H](O)C(C)[C@H]4C[N+](=O)[O-] (stereo partly drawn) [Example 190, (3R,4R,7S,8aS,10aR,11R,12S,14R,14aS,14bS,E)-4-ethyl-14-hydroxy-7-methoxy-1,3,13-trimethyl-12-(nitromethyl)-3,4,8,8a,10a,11,12,13,14,14a-decahydro-11,14b-epoxynaphtho[2,1-e]oxecin-6(7H)-one] |  |  | > 64 | 64 (≈ 142 µM) |  |  |  |  | 66.7 µM | 6.67 | > 64 |
| CO[C@H]1C[C@H]2C=CC3C4[C@H](O)[C@@H](C)[C@@H](OC(=O)c5ccc[nH]5)[C@@H]3O[C@]42/C(C)=C/[C@@H](C)[C@@H]([C@@H](C)OC(=O)C(=O)OCCN(C)C)OC1=O.O=C(O)C(F)(F)F [Example 205] |  |  | 64 | 2 |  |  |  |  | 7.76 µM | < 0.00776 | > 128 |
| CO[C@H]1C[C@H]2C=CC3C4[C@H](O)[C@@H](C)[C@@H](OC(=O)c5ccc[nH]5)[C@@H]3O[C@]42/C(C)=C/[C@@H](C)[C@@H]([C@@H](C)OC(=O)C(=O)OCc2cccnc2)OC1=O.O=C(O)C(F)(F)F [Example 208] |  |  | 32 | 1 |  |  |  |  | 3.41 µM | < 0.00757 | > 128 |
